Measurements taken from patent US8604048B2, “Pyridocarbazole type compounds and applications thereof” (Centre National de la Recherche Scientifique, priority 2009, dated 2013).

Key:
recombinant human LIMK1 = target: T1, recombinant human LIMK1 (Homo sapiens, UniProt P53667); assay: Radiometric LIMK1 kinase assay; assay type: biochemical; details: Lineweaver-Burk plots
T1 construct: 6His (N); purchased Millipore 14-656
Procedure: Compounds were tested in a radiometric LIMK1 assay performed in a final volume of 25 μl containing 3 μl of compound or equivalent amount of DMSO as control, 2 μl (1 ng) of N-terminal 6His-tagged recombinant human LIMK1 (Millipore #14-656, in 20 mM MOPS pH=7.0, 1 mM EDTA, 0.01% NP-40, 5% glycerol, 0.1% β-mercaptoethanol, 1 mg·ml^−1 Bovine Serum Albumin) and a mixture containing […] pH=7.0, 200 μM EDTA, 70 μM of recombinant GST-cofilin 1, 25 mM Mg(OAc)2, and 360 μM [γ-^32P]-ATP. Assays were performed at 30° C. for 10 minutes before termination by the addition of 5 μl of 3% orthophosphoric acid. 25 μL aliquots were then spotted onto P80 filter square (4 cm^2). Filters were rinsed three times for 5 minutes by 0.5% orthophosphoric acid at 4° C. and transferred to scintillation vial. Following addition of scintillation cocktail (Ultima Gold, Perkin-Elmer), ^32P incorporation was measured using a scintillation counter.
FIG. 10 illustrates the inhibition of LIMK1 by Compound 1 (H06). Radiometric LIMK1 kinase assay was performed as described in Example 2; the following conditions were tested: without LIMK1 (‘−LIMK1’), with LIMK1 (1 ng) in presence of 5 μM H06 (‘5 μM H06’), 25 μM H06 (‘25 μM H06’) or with equivalent amount of DMSO (‘Ctl’).
Error bars represent standard error mean. […]

purified tubulin = assay: In vitro assembly of purified tubulin; assay type: biochemical; details: tubulin 1 mg/ml; Compound 1 at 25, 50, 100 μM
Procedure: FIG. 5 compares the effects of the Compound 1 of the invention with the effect of paclitaxel (Taxol®) on the assembly of the tubulin purified in vitro. Purified tubulin (1 mg/ml) is incubated in PEM buffer in the presence of GTP (1 mM), MgCl2 (5 mM), DAPI (10 μM) at 37° C. The effect of Compound 1 of the invention at various concentrations (×25 μM, ⊚ 50 μM and Δ 100 μM) is compared to that of paclitaxel (Taxol®) (▪) and of DMSO ( ? );
In order to know whether Compound 1 of the invention exerts its stabilizing effect via a direct action on tubulin, such as paclitaxel does, or by means an effector, its effect on the in vitro assembly of tubulin in microtubules has been analyzed. The first experiments were carried out on purified tubulin (1 mg/ml).

[1] = tested on: microtubules of HeLa cells; assay: Stability of the microtubules in cells, qualitative double-blind evaluation using a microscope; assay type: cell-based, Human; details: general statement
Procedure: 6. a step of analysis of the effect of the compound to be tested on the dynamics of the microtubule network. For this, HeLa cells are incubated for 2 h with the compound to be tested, then optionally treated with 10 μM nocodazole for 30 minutes.
Cells grown for two days on glass coverslips, were incubated 3 minutes at 37° C. with or without OPT buffer (Pipes 80 mM, EGTA 1 mM, MgCl 1 mM, Triton X-100 0.5% and glycerol 10% pH 6.8), and then fixed in methanol previously maintained at −20° C. for 10 minutes. The cells are then washed with PBS/0.1% Tween® 20 and incubated for 15 minutes minimum at room temperature with the appropriate primary antibodies (cf. the antibodies from Table III) diluted in a solution of PBS/0.3% BSA/0.02% NaN3. The cells are then washed 3 times with PBS/0.1% Tween® 20. They are incubated for 15 minutes at room temperature with a solution of secondary antibodies (cf. the antibodies from Table IV) and of Hoechst at a final concentration of 1 μg/ml, diluted in PBS/0.3% BSA/0.02% NaN3. […]
HeLa cells are seeded in black-bottomed black 96-well microplates (Greiner 655086) by distributing 90 μl per well of a cell solution containing 40 000 cells/ml, and incubated at 37° C. with 5% CO2. […] The various fluorescence intensities are measured using the FLUOstar OPTIMA reader. […]

T1 sequence (P53667 whole entry): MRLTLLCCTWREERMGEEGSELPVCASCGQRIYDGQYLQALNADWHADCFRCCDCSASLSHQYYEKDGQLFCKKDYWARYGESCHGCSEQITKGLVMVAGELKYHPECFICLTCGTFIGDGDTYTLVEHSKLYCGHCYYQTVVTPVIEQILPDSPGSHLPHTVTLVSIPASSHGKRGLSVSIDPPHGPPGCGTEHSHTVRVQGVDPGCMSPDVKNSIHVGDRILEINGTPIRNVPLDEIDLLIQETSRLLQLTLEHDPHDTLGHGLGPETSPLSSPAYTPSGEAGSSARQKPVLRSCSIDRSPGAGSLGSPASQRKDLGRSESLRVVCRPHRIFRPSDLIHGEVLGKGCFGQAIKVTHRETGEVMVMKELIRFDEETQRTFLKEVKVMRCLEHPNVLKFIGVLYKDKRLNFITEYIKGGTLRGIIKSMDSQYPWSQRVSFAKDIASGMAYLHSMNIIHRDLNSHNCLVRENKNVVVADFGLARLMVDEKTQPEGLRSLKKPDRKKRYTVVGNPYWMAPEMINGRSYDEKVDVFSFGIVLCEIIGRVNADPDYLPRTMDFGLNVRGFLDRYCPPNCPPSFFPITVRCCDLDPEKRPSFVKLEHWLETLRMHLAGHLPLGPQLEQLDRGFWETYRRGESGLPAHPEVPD

| SMILES | Inhibition mechanism on LIMK1 (recombinant human LIMK1; 70 nM and 280 nM compound) | Ki (recombinant human LIMK1; ATP competition) | Assembly of purified tubulin in vitro (purified tubulin) | Effect on the stabilization of cell microtubules [1] |
| --- | --- | --- | --- | --- |
| Cc1c2cc[nH]c(=O)c2c(C)c2c1[nH]c1ccc(OC(=O)c3ccccc3)cc12 [Compound 1, 9-benzoyloxy-5,11-dimethyl-2H,6H-pyrido[4,3-b]carbazol-1-one] | ATP competitor | ~0.06 µM | No assembly is observed | – |
| Cc1c2ccncc2c(C)c2c1[nH]c1ccccc12 [ellipticine] | – | – | – | does not have any effect |
